Reference: PubChem BioAssay AID330 (DTP/NCI, 2004)
Where “and” joins values, the source holds several entries; their conditions need not be identical. Identical values can stand only once. Toxic doses and inconclusive results are not listed.

Test system: P388 leukemia ip, CD2F1 mice, survival T/C
Test: NCI In Vivo Anticancer Drug Screen. Data for tumor model P388 Leukemia (intraperitoneal) in CD2F1 (CDF1) mice
Conditions: endpoint: median survival time, higher = longer survival
How it was run: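 Mice carrying the transplanted tumor received test compound or vehicle. Survival was recorded in each group, and the value is the treated-group measurement divided by that of the vehicle-treated control group.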

[1] = dose: 60.0 mg/kg/injection, schedule: Q01DX005 (ip), vehicle: saline with Tween-80
[2] = dose: 120.0 mg/kg/injection, schedule: Q01DX005 (ip), vehicle: saline with Tween-80
[3] = dose: 240.0 mg/kg/injection, schedule: Q01DX005 (ip), vehicle: saline with Tween-80
[4] = dose: 50.0 mg/kg/injection, schedule: Q01DX005 (ip), vehicle: saline with Tween-80
[5] = dose: 100.0 mg/kg/injection, schedule: Q01DX005 (ip), vehicle: saline with Tween-80
[6] = dose: 200.0 mg/kg/injection, schedule: Q01DX005 (ip), vehicle: saline with Tween-80
[7] = dose: 50.0 mg/kg/injection, schedule: Q01DX005 (ip), vehicle: Klucel (hydroxypropylcellulose) (HPC)
[8] = dose: 100.0 mg/kg/injection, schedule: Q01DX005 (ip), vehicle: Klucel (hydroxypropylcellulose) (HPC)
[9] = dose: 200.0 mg/kg/injection, schedule: Q01DX005 (ip), vehicle: Klucel (hydroxypropylcellulose) (HPC)
[10] = dose: 25.0 mg/kg/injection, schedule: Q01DX009 (ip), vehicle: saline with Tween-80
[11] = dose: 50.0 mg/kg/injection, schedule: Q01DX009 (ip), vehicle: saline with Tween-80
[12] = dose: 100.0 mg/kg/injection, schedule: Q01DX009 (ip), vehicle: saline with Tween-80
[13] = dose: 200.0 mg/kg/injection, schedule: Q01DX009 (ip), vehicle: saline with Tween-80
[14] = dose: 60.0 mg/kg/injection, schedule: Q01DX005 (ip), vehicle: Klucel (hydroxypropylcellulose) (HPC)
[15] = dose: 120.0 mg/kg/injection, schedule: Q01DX005 (ip), vehicle: Klucel (hydroxypropylcellulose) (HPC)
[16] = dose: 240.0 mg/kg/injection, schedule: Q01DX005 (ip), vehicle: Klucel (hydroxypropylcellulose) (HPC)
[17] = dose: 400.0 mg/kg/injection, schedule: Q01DX005 (ip), vehicle: Klucel (hydroxypropylcellulose) (HPC)

Nc1nc(CCCCc2ccccc2)c(N=Nc2ccc(Cl)cc2)c(=O)[nH]1
T/C [1]: 97 % of control
T/C [2]: 95 % of control
T/C [3]: 103 % of control

O=[N+]([O-])c1ccc(Sc2ncccn2)c([N+](=O)[O-])c1
T/C (dose: 50.0 mg/kg/injection, schedule: Q01DX009 (ip), vehicle: suspension in saline): 103 % of control
T/C (dose: 100.0 mg/kg/injection, schedule: Q01DX009 (ip), vehicle: suspension in saline): 88 % of control
T/C (dose: 200.0 mg/kg/injection, schedule: Q01DX009 (ip), vehicle: suspension in saline): 91 % of control

CC1=C(C)CN(c2ccnc3cc(Cl)ccc23)OC1
T/C [4]: 102 % of control
T/C [5]: 97 % of control
T/C [6]: 97 % of control

CN(C)CCC(=O)C(=Cc1ccc(Cl)c(Cl)c1)C(=O)CCN(C)C
T/C (dose: 50.0 mg/kg/injection, schedule: Q01DX005 (ip), vehicle: saline): 104 % of control
T/C (dose: 100.0 mg/kg/injection, schedule: Q01DX005 (ip), vehicle: saline): 109 % of control

Cc1cccc(N=Nc2c(C)nn(C(N)=S)c2C)c1C
T/C (dose: 25.0 mg/kg/injection, schedule: Q01DX005 (ip), vehicle: Klucel (hydroxypropylcellulose) (HPC)): 90 % of control
T/C [7]: 94 % of control
T/C [8]: 106 % of control

CN(C)C1=CC(=O)NC2CCCCC12 (stereo not drawn)
T/C [7]: 95 % of control
T/C [8]: 98 % of control
T/C [9]: 105 % of control

C=C1C(=O)OC2C1CC(O)/C(C)=C\CCC1(C)OC21 (stereo not drawn)
T/C (dose: 50.0 mg/kg/injection, schedule: Q01DX009 (ip), vehicle: distilled water + Tween-80 + alcohol): 117 % of control
T/C (dose: 70.0 mg/kg/injection, schedule: Q01DX009 (ip), vehicle: distilled water + Tween-80 + alcohol): 117 % of control
T/C (dose: 70.0 mg/kg/injection, schedule: Q01DX009 (ip), vehicle: water): 122 % of control
T/C (dose: 90.0 mg/kg/injection, schedule: Q01DX009 (ip), vehicle: distilled water + Tween-80 + alcohol): 104 % of control

O=C1c2ccccc2C(=O)N1CN1C(=O)c2ccccc2C1=O
T/C [10]: 95 % of control
T/C [11]: 115 % of control and 90 % of control
T/C [12]: 90 % of control
T/C [13]: 100 % of control

O=c1oc(-c2cc([N+](=O)[O-])cc([N+](=O)[O-])c2Cl)nc2ccccc12
T/C (dose: 12.5 mg/kg/injection, schedule: Q01DX009 (ip), vehicle: Klucel (hydroxypropylcellulose) (HPC)): 103 % of control and 110 % of control
T/C (dose: 25.0 mg/kg/injection, schedule: Q01DX009 (ip), vehicle: Klucel (hydroxypropylcellulose) (HPC)): 105 % of control and 110 % of control
T/C (dose: 50.0 mg/kg/injection, schedule: Q01DX009 (ip), vehicle: Klucel (hydroxypropylcellulose) (HPC)): 103 % of control and 94 % of control
T/C (dose: 100.0 mg/kg/injection, schedule: Q01DX009 (ip), vehicle: Klucel (hydroxypropylcellulose) (HPC)): 105 % of control

C/C=C1/C[N+]2(C)CCc3c([nH]c4ccccc34)C2CC1C(CO)C(=O)OC (stereo not drawn)
T/C (dose: 12.5 mg/kg/injection, schedule: Q01DX009 (ip), vehicle: saline with Tween-80): 96 % of control
T/C [10]: 104 % of control
T/C [11]: 98 % of control

CN1C(=O)C(=Cc2ccc(O)cc2)C(=O)N(C)C1=O
T/C [11]: 112 % of control and 113 % of control
T/C [12]: 118 % of control and 123 % of control
T/C (dose: 400.0 mg/kg/injection, schedule: Q01DX009 (ip), vehicle: saline with Tween-80): 86 % of control

COc1ccc(Cc2cc3c(cc2OCC(=O)N2CCOCC2)OCO3)cc1
T/C [7]: 97 % of control
T/C [8]: 89 % of control
T/C [9]: 97 % of control

COc1ccc2c(c1OC)[C@]13CCCC[C@@H]1[C@H](C2)N(C)CC3
T/C (dose: 12.5 mg/kg/injection, schedule: Q04DX003 (ip), vehicle: saline): 101 % of control
T/C (dose: 25.0 mg/kg/injection, schedule: Q04DX003 (ip), vehicle: saline): 100 % of control
T/C (dose: 50.0 mg/kg/injection, schedule: Q04DX003 (ip), vehicle: saline): 100 % of control

Cc1cc2c(cc1C)NC(=O)C(NC(=O)c1ccc(Cl)cc1)C=N2 (stereo not drawn)
T/C [14]: 92 % of control
T/C [15]: 93 % of control
T/C [16]: 93 % of control

Cc1cc(C)n(-c2ccc(-c3cc(=O)c4ccccc4o3)cc2)n1
T/C [4]: 92 % of control
T/C [5]: 90 % of control

CCC1=C(C(C)OCCO)C(=O)c2ccccc2C1=O (stereo not drawn)
T/C [4]: 96 % of control
T/C [5]: 100 % of control
T/C [6]: 94 % of control

CCOc1cccc(C=NCCS)c1O
T/C [4]: 92 % of control
T/C [5]: 90 % of control
T/C [6]: 86 % of control

CCOC(=O)Nc1cccc([N+](=O)[O-])c1
T/C (dose: 100.0 mg/kg/injection, schedule: Q04DX003 (ip), vehicle: other): 95 % of control
T/C (dose: 200.0 mg/kg/injection, schedule: Q04DX003 (ip), vehicle: other): 95 % of control
T/C (dose: 400.0 mg/kg/injection, schedule: Q04DX003 (ip), vehicle: other): 100 % of control

Cc1oc(-c2ccccc2)nc1C(N)=O
T/C [11]: 106 % of control and 89 % of control and 95 % of control
T/C [12]: 101 % of control and 91 % of control and 96 % of control
T/C [13]: 99 % of control and 100 % of control

COc1ccc(C2OC3=C(Nc4ccccc4N3)C2=O)cc1 (stereo not drawn)
T/C [14]: 97 % of control
T/C [15]: 97 % of control
T/C [16]: 98 % of control

COC(=O)CC1(C(=O)OC)C2=C(C(C(=O)C(F)F)CC2)N2CCCC21 (stereo not drawn)
T/C (dose: 12.5 mg/kg/injection, schedule: Q01DX001 (ip), vehicle: Klucel (hydroxypropylcellulose) (HPC)): 94 % of control
T/C (dose: 25.0 mg/kg/injection, schedule: Q01DX001 (ip), vehicle: Klucel (hydroxypropylcellulose) (HPC)): 97 % of control
T/C (dose: 50.0 mg/kg/injection, schedule: Q01DX001 (ip), vehicle: Klucel (hydroxypropylcellulose) (HPC)): 100 % of control

CC(=O)OC(C)C(O)C(O)C(/C=C/C1CC=CC(=O)O1)OC(C)=O (stereo not drawn)
T/C (dose: 8.25 mg/kg/injection, schedule: Q01DX005 (ip), vehicle: Klucel (hydroxypropylcellulose) (HPC)): 108 % of control
T/C (dose: 16.5 mg/kg/injection, schedule: Q01DX005 (ip), vehicle: Klucel (hydroxypropylcellulose) (HPC)): 104 % of control
T/C (dose: 33.0 mg/kg/injection, schedule: Q01DX005 (ip), vehicle: Klucel (hydroxypropylcellulose) (HPC)): 104 % of control
T/C (dose: 66.0 mg/kg/injection, schedule: Q01DX005 (ip), vehicle: Klucel (hydroxypropylcellulose) (HPC)): 95 % of control

CCN=c1cc2oc3cc(NCC)c(C)cc3c(-c3ccccc3C(=O)OCC)c-2cc1C
T/C (dose: 0.4 mg/kg/injection, schedule: Q01DX005 (ip), vehicle: saline with Tween-80): 110 % of control
T/C (dose: 0.8 mg/kg/injection, schedule: Q01DX005 (ip), vehicle: saline with Tween-80): 116 % of control
T/C (dose: 1.6 mg/kg/injection, schedule: Q01DX005 (ip), vehicle: saline with Tween-80): 119 % of control

O=C1CN(Cc2ccc3c(c2)OCO3)NO1
T/C [10]: 111 % of control
T/C [11]: 104 % of control and 108 % of control
T/C [12]: 101 % of control
T/C [13]: 119 % of control and 86 % of control

CC(=O)OCC1OC(Nc2[nH]c(=O)nc3occc23)C(OC(C)=O)C(OC(C)=O)C1OC(C)=O (stereo not drawn)
T/C (dose: 100.0 mg/kg/injection, schedule: Q01DX001 (ip), vehicle: saline with Tween-80): 107 % of control
T/C (dose: 200.0 mg/kg/injection, schedule: Q01DX001 (ip), vehicle: saline with Tween-80): 99 % of control
T/C (dose: 400.0 mg/kg/injection, schedule: Q01DX001 (ip), vehicle: saline with Tween-80): 97 % of control

CN(C)C1=Nc2ccccc2NC(=O)C1
T/C [7]: 105 % of control
T/C [8]: 105 % of control
T/C [9]: 105 % of control

Fc1cccc(C(Nc2nncs2)Nc2nncs2)c1
T/C [7]: 108 % of control and 97 % of control
T/C [8]: 112 % of control and 114 % of control
T/C [17]: 159 % of control

CCOC(=O)c1noc(Oc2ccc(Cl)cc2Cl)n1
T/C [1]: 93 % of control
T/C [2]: 97 % of control
T/C [3]: 90 % of control

CC(C)(C)NCC(CN1CCOCC1)C(=O)c1ccccc1 (stereo not drawn)
T/C (dose: 6.25 mg/kg/injection, schedule: Q01DX005 (ip), vehicle: Klucel (hydroxypropylcellulose) (HPC)): 99 % of control
T/C (dose: 12.5 mg/kg/injection, schedule: Q01DX005 (ip), vehicle: Klucel (hydroxypropylcellulose) (HPC)): 96 % of control

C[C@]12C=CC(=O)C=C1CC[C@@H]1[C@@H]2[C@@H](O)C[C@@]2(C)[C@H]1CC[C@]2(O)C(=O)CO
T/C [7]: 106 % of control
T/C [8]: 100 % of control
T/C [9]: 91 % of control
T/C [17]: 105 % of control
